# *1 amine or outer side, *2 acyl side, *3 side chain or, on linkers, in order; H or OH if unused. Where a SMILES comes first, the peptide text is derived from it. Bridges are numbered along the chain shown (N, C = ends). [ ]: non-standard residue; d: D form. The star is where a group is joined. X1 = COc1cc2cc(c1Cl)N(C)C(=O)C[C@H](OC(=O)[C@H](C)N(C)C(=O)CCSSC(C)CCC(=O)*)[C@]1(C)O[C@H]1[C@H](C)[C@@H]1C[C@@](O)(NC(=O)O1)[C@H](OC)/C=C/C=C(\C)C2; 1Nal = N[C@@H](Cc1cccc2ccccc12)C(=O)O; TBMB = c1c(C[*:1])cc(C[*:3])cc1C[*:2]; Tle = CC(C)(C)[C@H](N)C(=O)O; βAla = NCCC(=O)O; Sar = CNCC(=O)O
# How the values were obtained:
# HCC1806 xenograft = assay: In vivo efficacy of BT1718 in HCC1806 xenograft; parameters: species or system Mus Musculus; key to Best response at 10 mg/kg: CR complete response; PR partial response
# Method: The objective of this study was to evaluate the in vivo anti-tumor efficacy of BT1718in treatment of HT1080, NCI-H292, NCI-H1975, MDA-MB-231, HCC1806, RPMI2650, HCT-15, HT-29 and SNU-16 xenograft in BALB/c nude mice.
# The HT1080, NCI-H292, NCI-H1975, MDA-MB-231, HCC1806, RPMI2650, HCT-15, HT-29 and SNU-16 tumor cells were maintained in vitro as a monolayer culture in medium supplemented with 10% heat inactivated fetal bovine serum at 37° C. in an […]. The tumor cells will be routinely subcultured twice weekly by trypsin-EDTA treatment. The cells growing in an exponential growth phase will be harvested and counted for tumor inoculation.
# Mouse was inoculated subcutaneously at the right flank with tumor cells for tumor development. The animals were randomized and treatment was started when the average tumor reaches certain volume for the efficacy study, the inoculating cell amounts and starting tumor size were shown as below in Table 9. The test article administration and the animal numbers in each group were shown in the experimental design in Table 10.
# (§1) All the procedures related to animal handling, care and the treatment in the study were performed according to the guidelines of the Association for Assessment and Accreditation of Laboratory Animal Care (AAALAC). At the time of routine monitoring, the animals were daily checked for any effects of tumor growth and treatments on normal behavior such as mobility, food and water consumption (by looking only), body weight gain/loss (body weights were measured every day), eye/hair matting and any other abnormal effect as stated in the protocol. Death and observed clinical signs were recorded on the basis of the numbers of animals within each subset.
# (§2) The major endpoint was to see if the tumor growth could be delayed or mice could be cured. Tumor size was measured three times weekly in two dimensions using a caliper, and the volume was expressed in mm^3 using the formula: V=0.5 a×b^2 where a and b are the long and short diameters of the tumor, respectively. The tumor size was then used for calculations of T/C value. The T/C value (in percent) is an indication of antitumor effectiveness; T and C are the mean volumes of the treated and control groups, respectively, on a given day.
# (§3) TGI was calculated for each group using the formula: TGI (%)=[1−(Ti−T0)/(Vi−V0)]×100; Ti is the average tumor volume of a treatment group on a given day, T0 is the average tumor volume of the treatment group on the day of treatment start, Vi is the average tumor volume of the vehicle control group on the same day with Ti, and V0 is the average tumor volume of the vehicle group on the day of treatment start.
# Summary statistics, including mean and the standard error of the mean (SEM), are provided for the tumor volume of each group at each time point.
# Statistical analysis of difference in tumor volume among the groups was conducted on the data obtained at the best therapeutic time point after the final dose.
# A one-way ANOVA was performed to compare tumor volume among groups, and when a significant F-statistics (a ratio of treatment variance to the error variance) was obtained, comparisons between groups were carried out with Games-Howell test. All data were analyzed using Prism. P<0.05 was considered to be statistically significant.
# LU-01-0486 PDX model = assay type: in vivo, Mus Musculus; details: 3 or 10 mg/kg
# Method: The objective of this study was to evaluate the in vivo anti-tumor efficacy of BT1718 in the treatment of MT1-MMP low-expressing LU-01-0486 PDX model in female Balb/C nude mice
# Each mouse was inoculated subcutaneously at the right flank with LU-01-0486 of tumor fragment (30 mm^3) for tumor development. The treatments was started when the average tumor volume reaches 164 mm^3.
# as §1, with “following” for “according to”, “guidance” for “guidelines”, “twice weekly),” for “every day),”
# as §2, with “two” for “three”, “The T/C value (in percent) is an indication of antitumor effectiveness; T and C are the mean volumes of the treated and control groups, respectively, on a given day.” left out
# as §3, with “start. […]” for “start.”
# A one-way ANOVA was performed to compare tumor volume among groups, and when a significant F-statistics (a ratio of treatment variance to the error variance) was obtained, comparisons between groups were carried out with Games-Howell test. All data were analyzed using Prism. […]
smiles,measurement,setting,value
COc1cc2cc(c1Cl)N(C)C(=O)C[C@H](OC(=O)[C@H](C)N(C)C(=O)CCSSC(C)CCC(=O)NCCC(=O)N(C)CC(=O)N(C)CC(=O)N(C)CC(=O)N(C)CC(=O)N(C)CC(=O)N(C)CC(=O)N(C)CC(=O)N(C)CC(=O)N(C)CC(=O)N(C)CC(=O)N[C@@H](C)C(=O)N[C@H]1CSCc3cc4cc(c3)CSC[C@H](NC(=O)[C@@H](C)NC(=O)[C@H](Cc3cccc5ccccc35)NC(=O)[C@H](CCC(=O)O)NC(=O)[C@H](CC(N)=O)NC(=O)[C@@H](C)NC1=O)C(=O)N[C@@H](CCC(=O)O)C(=O)N[C@@H](CC(=O)O)C(=O)N[C@@H](Cc1ccccc1)C(=O)N[C@@H](Cc1ccc(O)cc1)C(=O)N[C@@H](CC(=O)O)C(=O)N[C@@H](C(C)(C)C)C(=O)N[C@H](C(N)=O)CSC4)[C@]1(C)O[C@H]1[C@H](C)[C@@H]1C[C@@](O)(NC(=O)O1)[C@H](OC)/C=C/C=C(\C)C2 (stereo partly drawn) [BT1718] ({X1-βAla}-[Sar][Sar][Sar][Sar][Sar][Sar][Sar][Sar][Sar][Sar]AC[dA]NE[1Nal][dA]CEDFYD[Tle]C-NH2; linker 12-18-25 via TBMB (inferred)),Body Weight,"HCC1806 xenograft; 1 mpk biw, day 0",22.5 ± 0.7 g
same,Tumor Volume,"HCC1806 xenograft; 1 mpk biw, day 0",188 ± 23 mm^3
same,Body Weight,"HCC1806 xenograft; 1 mpk biw, day 2",22.8 ± 0.7 g
same,Tumor Volume,"HCC1806 xenograft; 1 mpk biw, day 2",265 ± 53 mm^3
same,Body Weight,"HCC1806 xenograft; 1 mpk biw, day 4",23.6 ± 0.6 g
same,Tumor Volume,"HCC1806 xenograft; 1 mpk biw, day 4",428 ± 44 mm^3
same,Body Weight,"HCC1806 xenograft; 1 mpk biw, day 7",24.2 ± 0.5 g
same,Tumor Volume,"HCC1806 xenograft; 1 mpk biw, day 7",660 ± 85 mm^3
same,Body Weight,"HCC1806 xenograft; 1 mpk biw, day 9",24.0 ± 0.5 g
same,Tumor Volume,"HCC1806 xenograft; 1 mpk biw, day 9",793 ± 122 mm^3
same,Body Weight,"HCC1806 xenograft; 1 mpk biw, day 11",24.3 ± 0.6 g
same,Tumor Volume,"HCC1806 xenograft; 1 mpk biw, day 11",882 ± 118 mm^3
same,Body Weight,"HCC1806 xenograft; 1 mpk biw, day 14",24.8 ± 0.4 g
same,Tumor Volume,"HCC1806 xenograft; 1 mpk biw, day 14",1169 ± 137 mm^3
same,re-growth during dosing suspension,HCC1806 xenograft; 2 months dosing suspension period,no re-growth
same,Body Weight,"HCC1806 xenograft; 3 mpk biw, day 0",22.6 ± 1.0 g
same,Tumor Volume,"HCC1806 xenograft; 3 mpk biw, day 0",190 ± 17 mm^3
same,Body Weight,"HCC1806 xenograft; 3 mpk biw, day 2",23.2 ± 0.9 g
same,Tumor Volume,"HCC1806 xenograft; 3 mpk biw, day 2",259 ± 34 mm^3
same,Body Weight,"HCC1806 xenograft; 3 mpk biw, day 4",22.6 ± 1.0 g
same,Tumor Volume,"HCC1806 xenograft; 3 mpk biw, day 4",296 ± 41 mm^3
same,Body Weight,"HCC1806 xenograft; 3 mpk biw, day 7",22.8 ± 1.4 g
same,Tumor Volume,"HCC1806 xenograft; 3 mpk biw, day 7",276 ± 77 mm^3
same,Body Weight,"HCC1806 xenograft; 3 mpk biw, day 9",22.6 ± 1.6 g
same,Tumor Volume,"HCC1806 xenograft; 3 mpk biw, day 9",323 ± 116 mm^3
same,Body Weight,"HCC1806 xenograft; 3 mpk biw, day 11",23.2 ± 1.2 g
same,Tumor Volume,"HCC1806 xenograft; 3 mpk biw, day 11",392 ± 126 mm^3
same,Body Weight,"HCC1806 xenograft; 3 mpk biw, day 14",23.5 ± 1.1 g
same,Tumor Volume,"HCC1806 xenograft; 3 mpk biw, day 14",527 ± 158 mm^3
same,Body Weight,"HCC1806 xenograft; 10 mpk biw, day 0",23.1 ± 0.6 g
same,Tumor Volume,"HCC1806 xenograft; 10 mpk biw, day 0",186 ± 30 mm^3
same,Body Weight,"HCC1806 xenograft; 10 mpk biw, day 2",22.2 ± 1.1 g
same,Tumor Volume,"HCC1806 xenograft; 10 mpk biw, day 2",221 ± 35 mm^3
same,Body Weight,"HCC1806 xenograft; 10 mpk biw, day 4",23.2 ± 0.9 g
same,Tumor Volume,"HCC1806 xenograft; 10 mpk biw, day 4",185 ± 20 mm^3
same,Body Weight,"HCC1806 xenograft; 10 mpk biw, day 7",23.4 ± 0.8 g
same,Tumor Volume,"HCC1806 xenograft; 10 mpk biw, day 7",142 ± 9 mm^3
same,Body Weight,"HCC1806 xenograft; 10 mpk biw, day 9",22.9 ± 1.0 g
same,Tumor Volume,"HCC1806 xenograft; 10 mpk biw, day 9",92 ± 2 mm^3
same,Body Weight,"HCC1806 xenograft; 10 mpk biw, day 11",22.5 ± 1.2 g
same,Tumor Volume,"HCC1806 xenograft; 10 mpk biw, day 11",84 ± 6 mm^3
same,Body Weight,"HCC1806 xenograft; 10 mpk biw, day 14",23.8 ± 0.7 g
same,Tumor Volume,"HCC1806 xenograft; 10 mpk biw, day 14",67 ± 11 mm^3
same,TGI,"HCC1806 xenograft; HCC1806, 1 mpk, biw, day 14",8.6%
same,Tumor Volume,"HCC1806 xenograft; HCC1806, 1 mpk, biw, day 14",1169 ± 137 mm^3
same,TGI,"HCC1806 xenograft; HCC1806, 3 mpk, biw, day 14",68.6%
same,Tumor Volume,"HCC1806 xenograft; HCC1806, 3 mpk, biw, day 14",527 ± 158 mm^3
same,TGI,"HCC1806 xenograft; HCC1806, 10 mpk, biw, day 14",111.1%
same,Tumor Volume,"HCC1806 xenograft; HCC1806, 10 mpk, biw, day 14",67 ± 11 mm^3
same,Best response at 10 mg/kg,"HCC1806 xenograft; HCC-1806, 10 mg/kg",CR
same,Minimally Effective Dose IV BIW,"HCC1806 xenograft; HCC-1806, dose leading to tumor-stasis",<10 mg/kg
same,tumor volume after regression,HCC1806 xenograft; after 2-3 weeks 10 mg/kg biw,below 50 mm3
same,body weight effect,LU-01-0486 PDX model,no significant effect on body weight
same,tumor growth,LU-01-0486 PDX model,limited inhibition of tumor growth

# From patent publication US10441663B2, “Methods for treating cancer” (Bicycle Therapeutics Limited, priority 2016, dated 2019)
